Values quoted from earlier work as cited in patent US9168307B2, “Mitochondrial-targeted cationic nanoparticles comprising CaMKII inhibitors and uses thereof for treating and preventing diseases and disorders associated with CaMKII activity” (University of Iowa Research Foundation, priority 2012, dated 2015).

Test system: CaMKII
Conditions: starting point for dose response curve

Sequence: KRPPKLGQIGRAKRVVIEDDR (SEQ ID NO:1) [peptide]
- IC50: 100 nM
